The values that follow come from ChEMBL document CHEMBL1121497, “Studies on cardiovascular agents. 6. Synthesis and coronary vasodilating and antihypertensive activities of 1,2,4-triazolo[1,5-a]pyrimidines fused to heterocyclic systems” (1980).

The species named for experiment [1] is Cavia porcellus. In words: Integrated vasodilating potency (IVP) (the product of compound-induced maximum percent decrease in the perfusion pressure and the duration of the effect in minutes at 100 ug (ia)). Format: functional.
Experiment [2] deals with Rattus norvegicus. Kind of experiment: Hypotensive index (HI) measured as the area under the time-hypotensive response curve for 6-h period at 30 mg/kg, po. Type of experiment: functional.

The compound `Cc1nc2ncnn2c2c1CCCO2` had an IVP in experiment [1] of 0.

On to `COc1ccc(CN2CCc3c(C)nc4ncnn4c32)cc1OC`, for which the IVP in experiment [1] is recorded as 174. The same compound gave an HI in experiment [2] of 55. The like results for `CC(C)(C)CN1CCc2c(C3CC3)nc3ncnn3c21` were, in that order, 50 and 20. The corresponding values for `Cc1nc2ncnn2c2c1CCN2CC(C)(C)C` are 760 and 40.

`COc1cc(CN2CCc3c(C)nc4ncnn4c32)cc(OC)c1OC` came in with an IVP in experiment [1] of 109. Further, in experiment [2], the HI was 15.

With `Cc1nc2ncnn2c2c1CC(C)N2Cc1ccccc1Cl` (centres undefined), the IVP in experiment [1] is listed as 80. Besides, the HI in experiment [2] turned out to be 8.

With `Cc1nc2ncnn2c2c1CCN2C(C)C`, the IVP in experiment [1] is recorded as 24. Also, in experiment [2], the HI is recorded as 0. As for `Cc1nc2nc(-c3ccccc3)nn2c2c1CCN2CCCN1CCCC1`, the IVP in experiment [1] stood at 105. This compound yielded an HI in experiment [2] of 44. Consider `CCCN1CCc2c(C)nc3ncnn3c21`, for which the IVP in experiment [1] is 193. In experiment [2], the HI came out at 15. The corresponding values for `CCN(CC)CCN1CCc2c(C)nc3ncnn3c21` are 1 and 0. Turning to `Clc1ccccc1CN1CCc2c(C3CC3)nc3ncnn3c21`, in experiment [1], the IVP was 5. For the compound `Cc1nc2ncnn2c2c1CC(C)N2C(C)C` (centres undefined), in experiment [1], the IVP amounted to 10. The same compound gave an HI in experiment [2] of 0. The corresponding values for `Cc1nc2ncnn2c2c1CCN2c1ccc(S(N)(=O)=O)cc1` are 14 and 0. The corresponding values for `Cc1nc2ncnn2c2c1CCN2CCC(C)C` are 118 and 5. The corresponding values for `COc1cc(C(=O)OCCCN2CCc3c(C)nc4ncnn4c32)cc(OC)c1OC` are 26 and 10.

As to `Cc1nc2ncnn2c2c1CCN2C(C)C(O)c1ccccc1` (centres undefined), the IVP in experiment [1] turned out to be 8. In addition, the HI in experiment [2] worked out at 0. With `Cc1ccc(CN2CCc3c(C)nc4ncnn4c32)cc1`, the IVP in experiment [1] came out at 119. Moreover, the HI in experiment [2] amounted to 15. The corresponding values for `Cc1nc2ncnn2c2c1CCS2` are 0 and 10. In turn, `Cc1nc2ncnn2c2c1CCN2CCN1CCN(C)CC1` registered an IVP in experiment [1] of 20. Moreover, the HI in experiment [2] is given as 10. `CCC1Cc2c(C)nc3ncnn3c2N1C(C)C` (centres undefined): in experiment [1], the IVP turned out to be 0. This compound also came in with an HI in experiment [2] of 20. Compound `Cc1nc2ncnn2c2c1CCN2C1CCCCC1` showed an IVP in experiment [1] of 65. In experiment [2], the HI came out at 12. With `CCCCN1c2c(c(C)nc3ncnn23)CC1CC` (centres undefined), in experiment [1], the IVP is recorded as 120. The compound further showed an HI in experiment [2] of 10. Regarding `Cc1nc2nc(C)c3c(n2n1)N(C(C)(C)C)CC3`, in experiment [1], the IVP worked out at 18. This compound also had an HI in experiment [2] of 35. The like results for `Cc1nc2ncnn2c2c1CCN2CC(C)C` were, in that order, 107 and 60. The like results for `COc1ccc(-c2nc3nc(C)c4c(n3n2)N(C)CC4)cc1` were, in that order, 0 and 0. As for `Cc1nc2ncnn2c2c1CCN2CCC(=O)c1ccccc1`, the IVP in experiment [1] is 32. The HI in experiment [2] stood at 17. `Cc1nc2ncnn2c2c1CCN2CCS` showed an IVP in experiment [1] of 285. Moreover, the HI in experiment [2] worked out at 10. The like results for `Cc1nc2ncnn2c2c1CCN2CCCN(C)C` were, in that order, 0 and 10. As to `CCCCN(CCCC)CCCN1CCc2c(C)nc3ncnn3c21`, the IVP in experiment [1] worked out at 0. Also, in experiment [2], the HI came to 40.

In the case of `Cc1nc2ncnn2c2c1CCN2Cc1ccccc1F`, in experiment [1], the IVP is 351. The same compound registered an HI in experiment [2] of 5. The corresponding values for `CCCCCN1CCc2c(C)nc3ncnn3c21` are 15 and 6. With `Cc1nc2ncnn2c2c1N(C)CCN2C`, the IVP in experiment [1] is 45. In experiment [2], this compound gave an HI of 25. Consider `Cc1nc2ncnn2c2c1CC(C)N2Cc1ccccc1F` (centres undefined), for which the IVP in experiment [1] is reported as 64. In addition, the HI in experiment [2] is recorded as 5.

In the case of `Cc1nc2ncnn2c2c1C(C)CN2C(C)(C)C` (centres undefined), in experiment [1], the IVP turned out to be 333. The same compound showed an HI in experiment [2] of 20.

In turn, `Cc1nc2ncnn2c2c1CCN2Cc1ccccc1` came in with an IVP in experiment [1] of 46. Further, in experiment [2], the HI was 170. The compound `Cc1nc2nc(C)c3c(n2n1)N(CCCN1CCCC1)CC3` had an IVP in experiment [1] of 0. For the same compound, in experiment [2], the HI was found to be 10. The like results for `COc1cc(-c2nc3nc(C)c4c(n3n2)N(C(C)(C)C)CC4)cc(OC)c1OC` were, in that order, 222 and 50. The corresponding values for `COc1ccc(CCN2CCc3c(C)nc4ncnn4c32)cc1OC` are 11 and 15. With `Cc1nc2ncnn2c2c1ccn2Cc1ccccc1Cl`, in experiment [1], the IVP was 22. Further, the HI in experiment [2] amounted to 12.

`Cc1nc2ncnn2c2c1CCN2CCCN(CCO)CCO` had an IVP in experiment [1] of 0. The compound further showed an HI in experiment [2] of 45. `Cc1nc2ncnn2c2c1CCN2CCc1ccccc1`: the IVP in experiment [1] turned out to be 100. Besides, in experiment [2], the HI was found to be 5. In experiment [2], `CCCCCCCCCCN1CCc2c(C)nc3ncnn3c21` displayed an HI of 7.

In experiment [1], `Cc1nc2ncnn2c2c1CCN2CCN1CCCC1` yielded an IVP of 2. Moreover, the HI in experiment [2] is recorded as 0. The compound `CCC1Cc2c(C)nc3ncnn3c2N1C(C)(C)C` (centres undefined) showed an IVP in experiment [1] of 227. Moreover, the HI in experiment [2] stood at 12. The like results for `Cc1nc2ncnn2c2c1CCN2CCCN1CCCC1` were, in that order, 0 and 75. `Cc1nc2ncnn2c2c1ccn2C(C)(C)C` came in with an IVP in experiment [1] of 246. Also, the HI in experiment [2] stood at 160. `CCCCCCCCCCCCN1CCc2c(C)nc3ncnn3c21` came in with an HI in experiment [2] of 10. With `Cc1nc2ncnn2c2c1CC(C)N2C(C)(C)C` (centres undefined), the IVP in experiment [1] is given as 47. On to `Cc1nc2ncnn2c2c1CCN2C(C)c1ccccc1` (centres undefined), for which the IVP in experiment [1] amounted to 137. Besides, the HI in experiment [2] was 5. In experiment [1], `CC(C)(C)N1CCc2c(C3CC3)nc3ncnn3c21` showed an IVP of 125. The HI in experiment [2] is recorded as 20.

On to `CCC1Cc2c(C)nc3ncnn3c2N1Cc1ccccc1F` (centres undefined), for which, in experiment [1], the IVP is recorded as 67. In addition, the HI in experiment [2] is recorded as 0. The like results for `CCCCN1c2c(c(C)nc3ncnn23)CC1C` (centres undefined) were, in that order, 50 and 45. The corresponding values for `C=CCN1CCc2c(C)nc3ncnn3c21` are 56 and 70. `Cc1cn(C(C)(C)C)c2c1c(C)nc1ncnn12` returned an IVP in experiment [1] of 330. In addition, the HI in experiment [2] turned out to be 20.

Consider `COc1cc(C(=O)OCCN2CCc3c(C)nc4ncnn4c32)cc(OC)c1OC`, for which the IVP in experiment [1] was determined as 21. In experiment [2], this compound gave an HI of 0. On to `Cc1nc2ncnn2c2c1CCN2CCN1CCOCC1`, for which the IVP in experiment [1] came to 16. In experiment [2], this compound had an HI of 5. The corresponding values for `Cc1nc2ncnn2c2c1CCN2CCOCCO` are 22 and 10. Consider `CCN1CCc2c(C)nc3ncnn3c21`, for which, in experiment [1], the IVP was determined as 12. For the same compound, in experiment [2], the HI is 10. Take `Cc1nc2ncnn2c2c1CCN2C(C)(C)CC(C)(C)C`: in experiment [1], the IVP is given as 32. Turning to `CNC1(C)C2CCC(C2)C1(C)C` (centres undefined) [MECAMYLAMINE], the HI in experiment [2] is 110. `N=C(N)NCCN1CCCCCCC1.N=C(N)NCCN1CCCCCCC1.O=S(=O)(O)O` [GUANETHIDINE SULFATE] showed an HI in experiment [2] of 195.
